Results as given in patent US9540351B2, “Pharmaceutically acceptable salts of 3,5-diaminopyrazole kinase inhibitors” (AXIKIN PHARMACEUTICALS, INC., priority 2013, dated 2017).
Where two headings read alike, the source gives them in different places.

How the values were obtained:
[1] = Solubility assessment of salts in water; type: physicochemical; conditions: thermodynamic from solid, read-out: Aqueous Solubility
Method: Solubility assessment: A preweighed amount of powder of a salt was treated with water to target a nominal concentration of 10 mg/mL. If a clear solution was obtained, then the solubility was noted as ≧10 mg/mL. If a suspension was obtained, additional water was added to target a nominal concentration of 5 mg/mL. If still a suspension after the addition of water, additional water was added to target a lower nominal concentration. If a suspension was still observed at a nominal concentration of 0.1 mg/mL, the suspension was filtered through a 0.4 micron filter, and the filtrate was analyzed by RP-HPLC to ascertain the solubility range of the salt.

[2] = target: T1, kinase domain protein of RC kinase (Homo sapiens, UniProt Q56UN5); experiment: Enzymatic assay for kinase inhibitory activity (Crebtide substrate, Lance readout); type: biochemical; conditions: free base compounds, inhibition of RC kinase activity at 1 μM
T1 sequence (Q56UN5 1061-1324 limits assumed): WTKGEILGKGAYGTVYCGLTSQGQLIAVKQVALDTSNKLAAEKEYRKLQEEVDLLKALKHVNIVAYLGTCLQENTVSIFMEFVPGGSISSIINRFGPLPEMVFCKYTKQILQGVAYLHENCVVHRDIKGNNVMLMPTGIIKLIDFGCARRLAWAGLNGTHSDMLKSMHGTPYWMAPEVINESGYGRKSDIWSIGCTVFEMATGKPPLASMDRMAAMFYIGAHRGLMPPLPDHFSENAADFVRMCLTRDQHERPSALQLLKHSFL
Method: Solutions of a test compound, Crebtide (a substrate), a kinase, and ATP were prepared using 1×MAPK Buffer (50 mM HEPES, 1 mM EGTA, […], 10 mM MgCl2, 2 mM DTT, and 0.01% Tween 20).
To each well, the test compound (1 μL) was first added (in duplicate) to reach a final concentration of 1 μM or 1×IC50 of the compound. The kinase (5 μL) was then added to each well to reach a final concentration of […] for the kinase domain or […] for the full-length domain. Each plate included a positive and negative controls in duplicate wells. Crebtide (2.5 μL) was then added to each well in duplicate to reach a final concentration of 50 nM. If the full-length kinase was used, the plates were incubated for 45 min at room temperature before proceeding further. ATP (2.5 μL) was added to each well to reach a final concentration of 1 μM for the kinase domain and 3 μM for the full-length.
After the addition of ATP, the plates were incubated for 45 min at room temperature. During the incubation, an EDTA solution (40 mM) and anti-Crebtide ([…]) were prepared. Additionally, a detection buffer stock solution was diluted ten fold before use.
After the incubation, the anti-Crebtide (5 μL) and EDTA (5 μL) were added to each well to reach their final concentrations of […] and 10 mM, respectively. The plates were allowed to develop at room temperature for 45 min. The plates were then read at 665 nm and 615 nm using Perkin Elmer Lance machine.
As will be appreciated by those skilled in the are, the activity of a particular salt provided herein will be the same as the activity for the parent free-base compound.

Row | SMILES | solubility ([1]; Free base) [µg/mL] | solubility ([1]; HCl salt) [µg/mL] | inhibition at 1 µM [2] [%] | solubility ([1]; Methane sulfonic acid salt) [µg/mL] | solubility ([1]; Phosphoric acid salt) [µg/mL] | solubility ([1]; Sulfuric acid salt) [µg/mL] | solubility ([1]; Trifluoroacetic acid salt) [µg/mL] | solubility ([1]; HBr salt) [µg/mL] | solubility ([1]; acetic acid salt) [µg/mL] | solubility ([1]; camphorsulfonic acid salt) [µg/mL] | solubility ([1]; formic acid salt) [µg/mL] | solubility ([1]; p-toluenesulfonic acid salt) [µg/mL] | solubility ([1]; tartaric acid salt) [µg/mL]
1 | NC(=O)C1=C(NCc2ccc(O)cc2)N=NC1Nc1cccc(Cl)c1 (stereo not drawn) [Compound 1, 3-((3-chlorophenyl)amino)-5-((4-hydroxybenzyl)amino)-3H-pyrazole-4-carboxamide] | < 40 | > 63 | ≥ 50 |  |  |  |  |  |  |  |  |  | 
2 | NC(=O)C1=C(NCc2ccc(O)cc2)N=NC1Nc1ccc(N2CCOCC2)nc1 (stereo not drawn) [Compound 5, 5-((4-hydroxybenzyl)amino)-3-((6-morpholinopyridin-3-yl)amino)-3H-pyrazole-4-carboxamide] | < 100 | > 2000 | ≥ 50 | > 10000 | > 100 | > 10 | > 1000 |  |  |  |  |  | 
3 | NC(=O)c1c(Nc2ccc3[nH]ncc3c2)n[nH]c1NCc1ccc(O)cc1 [Compound 9, 3-((1H-indazol-5-yl)amino)-5-((4-hydroxybenzyl)amino)-3H-pyrazole-4-carboxamide] | < 40 | < 100 | ≥ 50 |  |  |  |  |  |  |  |  |  | 
4 | CC(C)N1CCN(c2ccc(Nc3n[nH]c(NCc4ccc(O)cc4)c3C(N)=O)cc2)CC1 [Compound 7, 5-((4-hydroxybenzyl)amino)-3-((4-(4-isopropylpiperazin-1-yl)phenyl)amino)-3H-pyrazole-4-carboxamide] | < 40 | > 500 | ≥ 50 |  | > 1000 |  |  |  |  |  |  |  | 

Other lines, results leading:

Row | solubility ([1]; Free base) [µg/mL] | solubility ([1]; HCl salt) [µg/mL] | inhibition at 1 µM [2] [%] | solubility ([1]; Methane sulfonic acid salt) [µg/mL] | solubility ([1]; Phosphoric acid salt) [µg/mL] | solubility ([1]; Sulfuric acid salt) [µg/mL] | solubility ([1]; Trifluoroacetic acid salt) [µg/mL] | solubility ([1]; HBr salt) [µg/mL] | solubility ([1]; acetic acid salt) [µg/mL] | solubility ([1]; camphorsulfonic acid salt) [µg/mL] | solubility ([1]; formic acid salt) [µg/mL] | solubility ([1]; p-toluenesulfonic acid salt) [µg/mL] | solubility ([1]; tartaric acid salt) [µg/mL] | SMILES
5 | < 40 | > 500 | ≥ 50 |  |  |  |  |  |  |  |  |  |  | NC(=O)C1=C(NCc2ccc(O)cc2)N=NC1Nc1ccc(CN2CCOCC2)cc1 (stereo not drawn) [Compound 3, 5-((4-hydroxybenzyl)amino)-3-((4-(morpholinomethyl)phenyl)amino)-3H-pyrazole-4-carboxamide]
6 | < 40 | > 1000 | ≥ 50 |  |  |  |  |  |  |  |  |  |  | CN1CCN(c2ccc(NC3N=NC(NCc4ccc(O)cc4)=C3C(N)=O)cc2)CC1 (stereo not drawn) [Compound 2, 5-((4-hydroxybenzyl)amino)-3-((4-(4-methylpiperazin-1-yl)phenyl)amino)-3H-pyrazole-4-carboxamide]
7 | < 40 | > 500 | ≥ 50 |  | > 1000 |  |  |  |  |  |  |  |  | NC(=O)C1=C(NCc2ccc(O)cc2)N=NC1Nc1ccc(-n2ccnc2)cc1 (stereo not drawn) [Compound 8, 3-((4-(1H-imidazol-1-yl)phenyl)amino)-5-((4-hydroxybenzyl)amino)-3H-pyrazole-4-carboxamide]
8 | < 100 | > 10000 | ≥ 50 |  | < 200 | > 2000 | < 200 | > 10000 | < 500 | < 200 | < 500 |  |  | NC(=O)c1c(Nc2ccc(N3CCOCC3)cc2)n[nH]c1NCc1ccc(O)cc1 [Compound 4, 5-((4-hydroxybenzyl)amino)-3-((4-morpholinophenyl)amino)-3H-pyrazole-4-carboxamide]
9 | < 100 |  | ≥ 50 |  | > 20000 | < 500 | < 500 |  |  | < 500 |  | < 200 | < 200 | NC(=O)C1=C(NCc2ccc(O)cc2)N=NC1Nc1ccc(-c2ccccn2)cc1 (stereo not drawn) [Compound 6, 5-((4-hydroxybenzyl)amino)-3-((4-(pyridin-2-yl)phenyl)amino)-3H-pyrazole-4-carboxamide]
